The values that follow come from US20260224577A1, “METHODS OF TREATING HEART FAILURE WITH VIBEGRON” (SUMITOMO PHARMA CO., LTD., priority 2021, published 2026).

The target of one series is T1, β3-adrenergic receptor (Homo sapiens, UniProt P13945).
T1 construct: expressed in transfected cells; host or cells: HEK293
The series can be described thus: Functional cellular cAMP (HTRF) assay, HEK293 cells expressing β3-ARs. The class given is cell-based. The protocol:
(§1) The potency and maximal effect of vibegron and mirabegron for β3-adrenergic receptors and the selectivity for each […] receptor were determined. Functional cellular assays for vibegron and mirabegron activity were performed using Chinese hamster ovary (CHO) cells expressing β1- or β2-ARs and human embryonic kidney (HEK) 293 cells expressing β3-ARs. Cells were incubated with vibegron, mirabegron, or the appropriate control (isoproterenol for β1 and β3, procaterol for β2). Responses were quantified using homogeneous time-resolved fluorescence of cyclic adenosine monophosphate. Half-maximal effective concentration (EC50) and maximum response (Emax) values were determined by nonlinear least-squares regression analysis.
(In general: Time-resolved FRET reads energy transfer from a long-lived donor to a nearby acceptor.)

The target of another series is T2, β1-adrenergic receptor (Homo sapiens, UniProt P08588).
T2 construct: expressed in transfected cells; host or cells: CHO
The series can be described thus: Functional cellular cAMP (HTRF) assay, CHO cells expressing β1-ARs. Format: cell-based. Particulars: relative to isoproterenol. The method, then: as §1

In series [1] the test system is mice with induced myocardial infarction. In words: Post-MI chronic heart failure in mice, invasive hemodynamics with isoproterenol. Format: in vivo, mouse. Particulars: 4 weeks of treatment. The source says:
(§2) Myocardial infarction was induced in 10-12 week C57B/6 wild-type mice and after 2 weeks echo cardiograms were used to assess the MI severity in each mouse. Mice were randomized for treatment based on similarity and severity of the induced infarct. The mice were started with either vibegron or vehicle (1-3 doses) administered by continuous infusion using 2 week minipumps (Azlet Corp.) that were filled with the appropriate dose and implanted subcutaneously on the back of each animal in the region of the scapula. The minipumps were replaced with new minipumps in the same location at the 2 week time point and dosed for 4 weeks in total. Cardiac function was assessed by echocardiography (Echo) at 0, 2, 4, and 6 weeks. Some mice were subjected to terminal catheterization to measure hemodynamic pressures and adrenergic responsiveness. At the end of the 4 week treatment period (i.e., 6 weeks after MI was induced), cardiac function was measured, mice were sacrificed for histology of the heart, and terminal blood was collected to confirm the serum concentration of vibegron.
• 1. Day 0 (after 1-2 weeks acclimation)—pre-surgery Echo • 2. Perform LAD Ligation (MI) or Sham procedure • 3. Day 14—Echo and randomly assign groups • 4. Day 14—begin administration of vehicle and drug for 4 weeks • 5. Day 28—Echo (operator blinded to groups)—change pumps for another 2 week dosing • 6. Day 42—Echo (operator blinded to groups) • 7. Day 42—Some were used for hemodynamics and ISO dose response and all animals sacrificed. Some were used for histology and some for RNA/Protein analysis. Blood was also collected at the time of sacrifice to determine serum concentrations.
Invasive Measurements: The hemodynamic measurements occurred at the end of the study as described in the protocols above. […] Hemodynamic measurements were collected and analyzed for cardiac function.
The maximum (dp/dt max) rate of pressure change during contraction and minimum (dp/dt min) rate of pressure change during relaxation of the left ventricle were measured with increasing doses of isoproterenol in combination with vibegron. […]

The nature of series [2]: Plasma titer after 4 weeks of treatment in post-MI mice. Format: in vivo, mouse. Particulars: after 4 weeks of treatment (week 6), FIG. 6.
Text: as §2
• 1. Day 0 (after 1-2 weeks acclimation)—pre-surgery Echo • 2. Perform LAD Ligation (MI) or Sham procedure • 3. Day 14—Echo and randomly assign groups • 4. Day 14—begin administration of vehicle and drug for 4 weeks • 5. Day 28—Echo (operator blinded to groups)—change pumps for another 2 week dosing • 6. […]

T1 sequence (P13945 whole entry): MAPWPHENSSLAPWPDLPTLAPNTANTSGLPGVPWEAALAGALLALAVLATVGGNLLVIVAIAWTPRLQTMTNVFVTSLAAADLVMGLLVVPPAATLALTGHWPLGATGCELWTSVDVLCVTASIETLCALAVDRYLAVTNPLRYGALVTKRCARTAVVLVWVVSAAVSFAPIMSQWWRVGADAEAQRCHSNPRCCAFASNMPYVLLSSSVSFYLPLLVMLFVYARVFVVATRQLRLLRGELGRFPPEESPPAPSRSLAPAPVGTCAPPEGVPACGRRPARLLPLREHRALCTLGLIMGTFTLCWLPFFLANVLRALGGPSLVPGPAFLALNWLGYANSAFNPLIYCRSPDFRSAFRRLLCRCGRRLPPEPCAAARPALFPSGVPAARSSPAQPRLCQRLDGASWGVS
T2 sequence (P08588 whole entry): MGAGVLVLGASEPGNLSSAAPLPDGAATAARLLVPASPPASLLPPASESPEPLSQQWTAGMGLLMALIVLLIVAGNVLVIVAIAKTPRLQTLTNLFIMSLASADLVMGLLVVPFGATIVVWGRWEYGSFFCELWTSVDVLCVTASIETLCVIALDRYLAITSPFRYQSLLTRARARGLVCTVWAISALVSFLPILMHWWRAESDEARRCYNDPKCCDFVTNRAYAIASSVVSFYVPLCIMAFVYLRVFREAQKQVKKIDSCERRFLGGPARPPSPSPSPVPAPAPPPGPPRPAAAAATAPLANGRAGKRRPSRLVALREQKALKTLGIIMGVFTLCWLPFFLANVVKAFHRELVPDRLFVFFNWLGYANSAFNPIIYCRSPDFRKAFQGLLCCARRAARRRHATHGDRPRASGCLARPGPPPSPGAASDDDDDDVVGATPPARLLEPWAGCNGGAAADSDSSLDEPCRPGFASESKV

A word on the Emax: it is the size of the effect at its maximum, as opposed to the concentration needed. As usually defined, the EC50 is the concentration needed to bring the measured effect to its halfway point. As to `O=C(Nc1ccc(C[C@@H]2CC[C@H]([C@H](O)c3ccccc3)N2)cc1)[C@@H]1CCc2nccc(=O)n21` [Vibegron, (6S)—N-[4-[[(2S,5R)-5-[(R)-hydroxy(phenyl)methyl]pyrrolidin-2-yl]methyl]phenyl]-4-oxo-7,8-dihydro-6H-pyrrolo[1,2-a]pyrimidine-6-carboxamide], the “β3-adrenergic activity relative to isoproterenol (% Activity)” value at β3-adrenergic receptor (10 μM, HEK293 cells) is recorded as 104%. Besides, the maximal response (Emax) at β3-adrenergic receptor (HEK293, estimated by nonlinear least-squares regression, read-out: Emax (maximum response) at the β3-AR) is 99.2%. Moreover, at β3-adrenergic receptor (HEK293 cells expressing β3-ARs, cAMP, read-out: Mean (SEM) EC50 at the β3-AR), the EC50 was 2.13 nM. Also, at β3-adrenergic receptor (estimated by nonlinear least-squares regression), the “Emax (maximum response) at the β3-AR” value is recorded as roughly 100%. On β3-adrenergic receptor (ratio of mean EC50 values), the “Potency at activating β3-ARs relative to mirabegron” value is listed as “approximately 5 times”. On β1-adrenergic receptor, the “β1-adrenergic activity (% Activity)” value was determined as 0%. Besides, the “Maximum rate of pressure change (dp/dt max) during left ventricle contraction” value in series [1] (increasing doses of isoproterenol, FIG. 4A) is listed as “increased”. For the same compound, the “Minimum rate of pressure change (dp/dt min) during left ventricle relaxation” value in series [1] (increasing doses of isoproterenol, FIG. 4B) is listed as “decreased”. Besides, the “Change in heart rate with increasing doses of isoproterenol” value in series [1] (versus mice not receiving vibegron, FIG. 4C) is listed as “higher increase in heart rate”. For the same compound, in series [2], the Vibegron plasma titer entry was “consistent with the dosing”.
